Reference: patent US8772274B1, “Anti-cancer compositions and methods” (The Penn State Research Foundation, priority 2008, dated 2014)
Structures can show the parent of a compound that is named as a salt.

How the values were obtained:
[1] = tested on: PI3 kinase/Akt3 and MAP kinase signaling in UACC 903 cells; assay: Western blot analysis of melanoma cell lysates; format: cell-based
Experimental: Melanoma cell line UACC 903 cells (1×10^6) are treated with increasing concentrations (7-21 μM) of PBIT and PBISe for 24 hours and cell lysates examined by Western blot analysis Cell lysates are harvested by addition of lysis buffer containing 50 mM HEPES (pH 7.5), 150 mM NaCl, 10 mM EDTA, 10% glycerol, 1% Triton X-100, 1 mM sodium orthovanadate, 0.1 mM sodium molybdate, 1 mM phenylmethylsulfonyl fluoride, 20 μg/ml aprotinin, and 5 μg/ml leupeptin. Whole cell lysates are centrifuged (≧10,000×g) for 10 minutes at 4° C. to remove cell debris. Protein concentrations are quantitated using the BCA assay (Pierce, Rockford, Ill.), and 30 μg of lysate loaded per lane onto NuPAGE Gels (Life Technologies, Carlsbad, Calif.). Following electrophoresis, samples are transferred to polyvinylidene difluoride membrane (Pall Corporation, Pensacola, Fla.). Blots are probed with antibodies to PRAS40 and phosphorylated PRAS40 (Thr246) (Invitrogen, Carlsbad, Calif.); antibodies to iNOS, cyclin D1, p27, p21, Erk2, α-enolase and secondary antibodies conjugated with horseradish peroxidase from Santa Cruz Biotechnology (Santa Cruz, Calif.); and antibodies to Akt3, phosphorylated-Akt (Ser473), phosphorylated-Erk 1/2 (Thr202/Tyr204), caspase-3 and cleaved PARP from Cell Signaling Technology (Danvers, Mass.). Immunoblots are developed using ECL (Pierce, Rockford, Ill.).

[2] = tested on: normal human fibroblast cells (FF2441); assay: MTS cell viability assay, normal fibroblasts; format: cell-based; conditions: Homo sapiens, FF2441, read-out: Inhibition of growth IC50, Fibroblast cells (FF2441) (Table II)
Experimental: 5×10^3 cells per well in 100 μl DMEM-10% FBS are grown in a 96-well plate for 36 or 72 hours, respectively for melanoma (UACC 903, 1205 Lu and WM115) and human fibroblast (FF2441) cell lines and treated with either PBS vehicle or increasing concentrations (3.5-21 μM) of PBIT, PBISe, PEIT or PEISe for 24 hours. Cellular viability compared to control treated cells is measured using the MTS assay (Promega, Madison, Wis.). IC50 (μM) values for each compound in respective cell lines is determined from three independent experiments using GraphPad Prism version 4.01 (GraphPad, San Diego, Calif.), bars, SEM.
Viability of colon adenocarcinoma cells (Caco-2, HT 29, HCT 116, SW 480) and normal fibroblast cells (FF2441) treated with PBIT (1), PBISe (2), PEIT (3) or PEISe (4) is compared. The IC50 value is evaluated by treating with increasing concentrations of PBIT, PEIT, PEISe (10-100 μM) or PBISe (1.6-50 μM) for 24-72 hours and the number of viable cell are quantified using MTS (Promega, Wis.).

[3] = tested on: HT-29 colorectal adenocarcinoma cells; assay: MTS cell viability assay, HT-29; format: cell-based; conditions: Homo sapiens; HT-29; 24-72 hours; MTS; read-out: Inhibition of growth IC50, HT-29 (Table II)
[4] = Toxicity of topical application in vivo
Experimental: Blood collected from the control and experimental animals, at the end of treatment (day 29), are analyzed for SGOT, SGPT (representing liver and cardiac toxicity) and alkaline phosphatase (for kidney and cardiac toxicity). Additionally, concentrations of metabolites (glucose, creatinine, urea nitrogen and total protein) in serum are also determined.

UACC 903 melanoma tumors = assay: Tumorigenicity assessment, UACC 903 xenograft, i.p. treatment; format: in vivo, nude mice; conditions: day 24; i.p. 0.315 moles (2.5 ppm selenium) Monday, Wednesday, Friday for 3 weeks
Experimental: Tumor kinetics are measured by subcutaneous injection of 5×10^6 UACC 903 or 2.5×10^61205 Lu cells in 0.2 ml of DMEM containing 10% FBS above left and right rib cages of 4-6 week old female nude mice (Harlan Sprague Dawley, Indianapolis, Ind.). Six days later, a fully vascularized tumor has developed and mice are randomly placed in control DMSO or experimental (PBIT or PBISe) groups (n=5 animals; 10 tumors total) followed by i.p. treatment with PBIT ([…]) or PBISe ([…]; equivalent to 2.5 ppm selenium per 20 g mouse) on Monday, Wednesday and Friday for 3 weeks. Dimensions of developing tumors and body weight are measured.

[5] = tested on: normal human fibroblast FF2441 and UACC 903 cells; assay: Sensitivity of melanoma cells compared to normal cells; format: cell-based; conditions: FF2441 vs UACC 903; 2, 4, 6, 12 and 24 hours
Text: Sensitivity of melanoma cells to PBISe is compared to normal cells. […] Thus, cultured cancer cells are 2-5 fold more sensitive to PBISe than normal cells.

[6] = tested on: OVCAR-3 ovarian carcinoma cells; assay: MTS cell viability assay, OVCAR-3; format: cell-based, human
Experimental: Growth inhibitory effects on cultured cells from human vertical growth phase (VGP) melanoma cell line WM115, Lung adenocarcinoma (A549), fibrosarcoma (HT-1080), prostate adenocarcinoma (PC-3), ovarian carcinoma (OVCAR-3), and breast adenocarcinoma (MDA-MB-231) are plated in 96 well plates at a density of 5×10^3 cells/well in 100 μl media. […] Dose response curves for each compound are generated and the IC50 values (μM) determined using GraphPad Prism software. Each experiment is replicated at least 3 times and the average IC50 (μM) values with standard error represented.

[7] = UACC 903, 7-21 μM, 24 hours, compared to PBIT

## N=C(N)[Se]CCc1ccc(CC[Se]C(=N)N)cc1 [PBISe, s,s′-1,4-phenylene-bis(1,2-ethanediyl)bis-isoselenourea dihydrobromide]
[1]; UACC 903, 7-21 μM, 24 hours
  cleaved caspase-3 and PARP: increases
  phosphorylation of downstream Akt3 substrate PRAS40: inhibited
[1]; [7]
  Akt phosphorylation: inhibits
  total Akt protein levels: decreases
[1]; melanoma cells, FIG. 4C
  cyclin D1 levels: reduces
[1]; three cell lines, FIG. 4C
  p27 as well as p21 levels: increases
[2]
  IC50: 17.1 ± 0.59 µM
[3]
  IC50: 3.84 ± 0.44 µM
[4]; day 29, SGOT, SGPT, alkaline phosphatase, glucose, creatinine, urea nitrogen, total protein
  serum enzyme and metabolite levels, topical application: no significant differences
[4]; topical every day, 29 days
  body weight, topical application: no detectable differences
UACC 903 melanoma tumors
  difference in tumor volume compared to control DMSO or PBIT, UACC 903: ~30%
[5]
  fold higher concentrations required to kill fibroblasts compared to melanoma cells: 2-5 fold
[6]; Homo sapiens, OVCAR-3, 24 h, read-out: Inhibition Cancer Cells IC50, OVCAR-3 (Table III)
  IC50: 5.3 ± 0.65 µM
[6]; ratio of IC50 PBIT/PBISe, OVCAR-3
  Fold increase in efficacy (PBIT/PBISe), OVCAR-3: >18.9 fold
